Results reported in patent publication US8017612B2, “Piperazine compound and use thereof as a HCV polymerase inhibitor” (priority 2006, dated 2011).

What was measured:
[1] = target: T1, HCV polymerase (NS5B) type 1a (Hepatitis C virus genotype 1a, UniProt P26664); assay: Assay of enzyme (HCV polymerase) inhibitory activity, type 1a enzyme; format: biochemical, HCV type 1a (cloned from the blood of patients)
T1 construct: made in house; host or cells: Escherichia coli (by the 'similar method' of the 1b enzyme)
Method in brief: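 IC50 values derive from radioactivity of newly synthesized RNA with versus without test compound. The enzyme was C-terminally truncated type 1a NS5B, 1.5 μg/ml, run 60 min at 25° C with 3H-UTP-labelled nucleotides.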

[2] = target: T2, HCV polymerase (NS5B) type 1b (Hepatitis C virus genotype 1b, UniProt P26663); assay: Assay of enzyme (HCV polymerase) inhibitory activity, type 1b enzyme; format: biochemical, HCV BK strain (type 1b)
T2 construct: a region encoding NS5B (J Virol 1991 March, 65(3), 1105-13, 544 amino acids after deletion of 47 amino acids on the C-terminal); 6xHis (C); made in house; host or cells: Escherichia coli
Method in brief: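 Polymerase activity was followed as radiolabelled UTP incorporation by E. coli-expressed, His-tagged NS5B of HCV type 1b lacking its last 47 residues. Conditions: 2 μM UTP, 50 μM other NTPs, Mg2+ buffer at pH 7.5, 25 °C for 60 min. Inhibition relative to compound-free reactions gave IC50.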

[3] = HCV polymerase inhibitory activity (IC50), 1a, type 1a enzyme 1.5 μg/ml, 25° C., 60 min
[4] = HCV polymerase inhibitory activity (IC50), 1b, type 1b enzyme 0.5 μg/ml, 25° C., 60 min
[5] = HCV polymerase inhibitory activity IC50, 1a, type 1a enzyme
[6] = HCV polymerase inhibitory activity IC50, 1b, type 1b enzyme

Row | SMILES | IC50 [1, 3] [nM] | IC50 [2, 4] [nM] | IC50 [1, 5] [nM] | IC50 [2, 6] [nM]
1 | CC(=O)N1CCN(S(=O)(=O)c2ccc(C(C)C)cc2)C(C(=O)NCc2ccccn2)C1 (centres unmarked) [Example 152, 4-acetyl-1-(4-isopropyl-benzenesulfonyl)-piperazine-2-carboxylic acid (pyridin-2-ylmethyl)-amide] | > 1000 | > 1000 | – | –
2 | CCCc1ccc(CNC(=O)[C@H]2CN(c3nc4ncncc4s3)CCN2S(=O)(=O)c2ccc(OC(F)(F)F)cc2)cc1 [Example 914, (R)-4-thiazolo[4,5-d]pyrimidin-2-yl-1-(4-trifluoromethoxy-benzenesulfonyl)-piperazine-2-carboxylic acid 4-propyl-benzylamide] | – | – | < 100 | < 100
3 | CN(C)C(=O)c1cncc2ncc(N3CCN(S(=O)(=O)c4ccc(OC(F)(F)F)cc4)[C@@H](C(=O)NCc4ccc(OC(F)(F)F)cc4)C3)nc12 [Example 866, 2-[(R)-4-(4-trifluoromethoxy-benzenesulfonyl)-3-(4-trifluoromethoxy-benzylcarbamoyl)-piperazin-1-yl]-pyrido[3,4-b]pyrazine-8-carboxylic acid dimethylamide] | – | – | < 100 | < 100
4 | CCCc1ccc(CNC(=O)[C@H]2CN(c3nc4cc(C(=O)OC(C)(C)C)ncc4s3)CCN2S(=O)(=O)c2ccc(OC(F)(F)F)cc2)cc1 [Example 1081, 2-[(R)-3-(4-propyl-benzylcarbamoyl)-4-(4-trifluoromethoxy-benzenesulfonyl)-piperazin-1-yl]-thiazolo[5,4-c]pyridine-6-carboxylic acid tert-butyl ester] | – | – | < 100 | < 100
5 | CC(=O)N1CCN(S(=O)(=O)c2ccc(C(C)C)cc2)[C@@H](C(=O)NCc2ccc(CO)cc2)C1 [Example 226, (R)-4-acetyl-1-(4-isopropyl-benzenesulfonyl)-piperazine-2-carboxylic acid 4-hydroxymethyl-benzylamide] | > 1000 | > 1000 | – | –
6 | CCCc1ccc(S(=O)(=O)N2CCN(C(=O)Nc3cccc(OCC(=O)O)c3)C[C@@H]2C(=O)NCc2ccc(C(C)C)cc2)cc1 [Example 282, (3-{[(R)-3-(4-isopropyl-benzylcarbamoyl)-4-(4-propyl-benzenesulfonyl)-piperazine-1-carbonyl]-amino}-phenoxy)-acetic acid] | 100 to 1000 | < 100 | – | –
7 | CCOC(=O)c1sc(N2CCN(S(=O)(=O)c3ccc(OC(F)(F)F)cc3)[C@@H](C(=O)NCc3ccc(C(C)(C)C)cc3)C2)nc1N [Example 582, 4-amino-2-[(R)-3-(4-tert-butyl-benzylcarbamoyl)-4-(4-trifluoromethoxy-benzenesulfonyl)-piperazin-1-yl]-thiazole-5-carboxylic acid ethyl ester] | 100 to 1000 | 100 to 1000 | – | –
8 | CCCc1ccc(CNC(=O)[C@H]2CN(C(=O)Cn3nnc(C)n3)CCN2S(=O)(=O)c2ccc(OC(F)(F)F)cc2)cc1 [Example 457, (R)-4-[2-(5-methyl-tetrazol-2-yl)-acetyl]-1-(4-trifluoromethoxy-benzenesulfonyl)-piperazine-2-carboxylic acid 4-propyl-benzylamide] | < 100 | < 100 | – | –
9 | COc1ncc2sc(N3CCN(S(=O)(=O)c4ccc(OC(F)(F)F)cc4)[C@@H](C(=O)NCc4ccc(OC(F)(F)F)cc4)C3)nc2n1 [Example 929, (R)-4-(5-methoxy-thiazolo[4,5-d]pyrimidin-2-yl)-1-(4-trifluoromethoxy-benzenesulfonyl)-piperazine-2-carboxylic acid 4-trifluoromethoxy-benzylamide] | – | – | < 100 | < 100
10 | CCCc1ccc(S(=O)(=O)N2CCN(c3ncc(C(=O)O)s3)C[C@@H]2C(=O)NCc2ccc(C(C)C)cc2)cc1 [Example 329, 2-[(R)-3-(4-isopropyl-benzylcarbamoyl)-4-(4-propyl-benzenesulfonyl)-piperazin-1-yl]-thiazole-5-carboxylic acid] | < 100 | < 100 | – | –
11 | COC(F)(F)c1ccc(CNC(=O)[C@H]2CN(c3nc4cn[nH]c(=O)c4s3)CCN2S(=O)(=O)c2ccc(OC(F)(F)F)cc2)cc1 [Example 938, (R)-4-(7-oxo-6,7-dihydro-thiazolo[4,5-d]pyridazin-2-yl)-1-(4-trifluoromethoxy-benzenesulfonyl)-piperazine-2-carboxylic acid 4-(difluoro-methoxy-methyl)-benzylamide] | – | – | 100 to 1000 | < 100
12 | O=C(NCc1ccc(OC(F)(F)F)cc1)[C@H]1CN(c2nc3c(=O)n(CCO)ncc3s2)CCN1S(=O)(=O)c1ccc(OC(F)(F)F)cc1 [Example 1078, (R)-4-[5-(2-hydroxy-ethyl)-4-oxo-4,5-dihydro-thiazolo[4,5-d]pyridazin-2-yl]-1-(4-trifluoromethoxy-benzenesulfonyl)-piperazine-2-carboxylic acid 4-trifluoromethoxy-benzylamide] | – | – | < 100 | < 100
13 | O=C(NCc1ccc(OC(F)(F)F)cc1)[C@H]1CN(c2cnc3cnc(C(F)(F)F)nc3n2)CCN1S(=O)(=O)c1ccc(OC(F)(F)F)cc1 [Example 798, (R)-1-(4-trifluoromethoxy-benzenesulfonyl)-4-(2-trifluoromethyl-pteridin-7-yl)-piperazine-2-carboxylic acid 4-trifluoromethoxy-benzylamide] | – | – | 100 to 1000 | < 100
14 | O=C(O)c1cccc2nc(N3CCN(S(=O)(=O)c4ccc(OC(F)(F)F)cc4)[C@@H](C(=O)NCc4ccc(OC(F)(F)F)cc4)C3)cnc12 [Example 780, 2-[(R)-4-(4-trifluoromethoxy-benzenesulfonyl)-3-(4-trifluoromethoxy-benzylcarbamoyl)-piperazin-1-yl]-quinoxaline-5-carboxylic acid] | – | – | 100 to 1000 | < 100
15 | CC(=O)N1CCN(S(=O)(=O)c2ccc(OC(F)(F)F)cc2)C(C(=O)NCc2ccc(C(F)(F)F)cc2)C1 (centres unmarked) [Example 65, 4-acetyl-1-(4-trifluoromethoxy-benzenesulfonyl)-piperazine-2-carboxylic acid 4-trifluoromethyl-benzylamide] | > 1000 | > 1000 | – | –
16 | CC(C)c1ccc(CNC(=O)[C@H]2CN(C(=O)CN3CCOCC3)CCN2S(=O)(=O)c2ccc(C(F)(F)F)cc2)cc1 [Example 180, (R)-4-(2-morpholin-4-yl-acetyl)-1-(4-trifluoromethyl-benzenesulfonyl)-piperazine-2-carboxylic acid 4-isopropyl-benzylamide] | > 1000 | 100 to 1000 | – | –
17 | CCCc1ccc(CNC(=O)[C@H]2CN(c3nc(C)c(S(N)(=O)=O)s3)CCN2S(=O)(=O)c2ccc(OC(F)(F)F)cc2)cc1 [Example 827, (R)-4-(4-methyl-5-sulfamoyl-thiazol-2-yl)-1-(4-trifluoromethoxy-benzenesulfonyl)-piperazine-2-carboxylic acid 4-propyl-benzylamide] | – | – | < 100 | < 100
18 | CC(C)c1ccc(CNC(=O)[C@H]2CN(C(=O)Cn3ncnn3)CCN2S(=O)(=O)c2ccc(C(F)(F)F)cc2)cc1 [Example 278, (R)-4-(2-tetrazol-2-yl-acetyl)-1-(4-trifluoromethyl-benzenesulfonyl)-piperazine-2-carboxylic acid 4-isopropyl-benzylamide] | < 100 | < 100 | – | –
19 | CC(C)(C)c1ccc(CNC(=O)[C@H]2CN(c3cnc4cncnc4n3)CCN2S(=O)(=O)c2ccc(OC(F)(F)F)cc2)cc1 [Example 617, (R)-4-pteridin-7-yl-1-(4-trifluoromethoxy-benzenesulfonyl)-piperazine-2-carboxylic acid 4-tert-butyl-benzylamide] | < 100 | < 100 | – | –
